The source of these data is patent publication US10259810B2, “N-sulfonylated pyrazolo[3,4-b]pyridin-6-carboxamides and method of use” (AbbVie S.à.r.l., priority 2015, dated 2019).

The assay has as its target T1, ΔF508-CFTR (Homo sapiens, UniProt P13569, DEL508-508).
T1 construct: host or cells: CFBE41o-, doxycycline-inducible
Description: CFTR cell surface levels using HRP-tagged ΔF508-CFTR expressing CFBE cells, in the presence of a co-corrector. Format: cell-based. From the text:
Measuring CFTR Cell Surface Levels Using HRP-Tagged ΔF508-CFTR Expressing CFBE Cells
The HRP-tagged ΔF508-CFTR cell assay measures the expression of CFTR-ΔF508 at the plasma membrane. CFTR-ΔF508 has a folding defect leading to absence of protein at the plasma membrane. This assay is used to evaluate the capacity of compounds to increase the expression of CFTR-ΔF508 at the plasma membrane. The CFTR-ΔF508 is tagged with HRP (horse radish peroxidase enzyme) within the ECL4 (Extracellular loop 4) of CFTR (Phuan, P.-W. et al. Synergy-based small-molecule screen using a human lung epithelial cell line yields ΔF508-CFTR correctors that augment VX-809 maximal efficacy. Mol. Pharmacol. 86, 42-51 (2014)). When HRP-tagged ΔF508-CFTR is present at the plasma membrane, the HRP enzyme activity can be measured. The amount of CFTR-ΔF508 that can be rescued to the plasma membrane is correlated with the amount of functional enzyme that can be measured.
There are several ways to measure the capacity of compounds to rescue CFTR-ΔF508 to the plasma membrane; either compounds are evaluated on their own and the impact on plasma membrane levels is measured or compounds are evaluated in combination with a co-corrector, i.e. a compound that rescues CFTR-ΔF508 to the plasma membrane but rescue can be enhanced by addition of compounds due to a complementary mode of action.
Activity of Compounds in Combination with Co-Corrector:
For this purpose doxycycline-inducible ΔF508-CFTR-HRP expressing CFBE4lo− cells (obtained from Gergely Lukacs, McGill University) were maintained in MEM (Minimum Essential Medium, Gibco; 31095) supplemented with 10% fetal bovine serum (Hyclone; SV30160.03) under puromycin (3 μg/mL) and G418 selection (0.2 mg/mL). For compound testing, cells were seeded at 4000 cells/well in white 384-well plates (Greiner; 781080) in 50 μL of medium containing 0.5 μg/mL doxycycline and incubated for 68 hours at 37° C., 5% CO2. On day four, 10 μL of test compounds diluted in PBS (phosphate buffered saline) were added to the plates at a final DMSO concentration of 0.1%. In order to measure compound synergy with a co-corrector, 3 μM co-corrector (3-[(2R,4R)-4-({[1-(2,2-difluoro-1,3-benzodioxol-5-yl)cyclopropyl]carbonyl}amino)-7-methoxy-3,4-dihydro-2H-chromen-2-yl]benzoic acid) was added along with test compounds. All compound plates contained negative controls (DMSO) and positive controls (3 μM co-corrector). Cell plates were incubated at 33° C., 5% CO2 for 20 hours. On day five, the cells were washed five times with phosphate-buffered saline, and HRP activity was assayed by the addition of 50 μL/well of HRP substrate (SuperSignal™ West Pico Chemiluminescent Substrate, Thermo Scientific; 34080). After incubation for 15 minutes in the dark, the chemiluminescence was measured using a plate reader (EnVision®, Perkin Elmer). Raw data were normalized to percentage activity values using the equation: 100×(Sample−Negative control)/(Positive control−Negative Control).

Setting [1] is: HRP-tagged ΔF508-CFTR CFBE cells, in the presence of 3 μM co-corrector.
Where [2] appears, read: HRP-tagged ΔF508-CFTR CFBE cells, in the presence of 3 μM co-corrector, read-out: EC50.

Read-outs that look alike come from different tables or passages of the source.

In general, EC50 refers to the concentration that produces a half-maximal response.

T1 sequence (P13569 with tags, fused parts or gaps DEL508-508): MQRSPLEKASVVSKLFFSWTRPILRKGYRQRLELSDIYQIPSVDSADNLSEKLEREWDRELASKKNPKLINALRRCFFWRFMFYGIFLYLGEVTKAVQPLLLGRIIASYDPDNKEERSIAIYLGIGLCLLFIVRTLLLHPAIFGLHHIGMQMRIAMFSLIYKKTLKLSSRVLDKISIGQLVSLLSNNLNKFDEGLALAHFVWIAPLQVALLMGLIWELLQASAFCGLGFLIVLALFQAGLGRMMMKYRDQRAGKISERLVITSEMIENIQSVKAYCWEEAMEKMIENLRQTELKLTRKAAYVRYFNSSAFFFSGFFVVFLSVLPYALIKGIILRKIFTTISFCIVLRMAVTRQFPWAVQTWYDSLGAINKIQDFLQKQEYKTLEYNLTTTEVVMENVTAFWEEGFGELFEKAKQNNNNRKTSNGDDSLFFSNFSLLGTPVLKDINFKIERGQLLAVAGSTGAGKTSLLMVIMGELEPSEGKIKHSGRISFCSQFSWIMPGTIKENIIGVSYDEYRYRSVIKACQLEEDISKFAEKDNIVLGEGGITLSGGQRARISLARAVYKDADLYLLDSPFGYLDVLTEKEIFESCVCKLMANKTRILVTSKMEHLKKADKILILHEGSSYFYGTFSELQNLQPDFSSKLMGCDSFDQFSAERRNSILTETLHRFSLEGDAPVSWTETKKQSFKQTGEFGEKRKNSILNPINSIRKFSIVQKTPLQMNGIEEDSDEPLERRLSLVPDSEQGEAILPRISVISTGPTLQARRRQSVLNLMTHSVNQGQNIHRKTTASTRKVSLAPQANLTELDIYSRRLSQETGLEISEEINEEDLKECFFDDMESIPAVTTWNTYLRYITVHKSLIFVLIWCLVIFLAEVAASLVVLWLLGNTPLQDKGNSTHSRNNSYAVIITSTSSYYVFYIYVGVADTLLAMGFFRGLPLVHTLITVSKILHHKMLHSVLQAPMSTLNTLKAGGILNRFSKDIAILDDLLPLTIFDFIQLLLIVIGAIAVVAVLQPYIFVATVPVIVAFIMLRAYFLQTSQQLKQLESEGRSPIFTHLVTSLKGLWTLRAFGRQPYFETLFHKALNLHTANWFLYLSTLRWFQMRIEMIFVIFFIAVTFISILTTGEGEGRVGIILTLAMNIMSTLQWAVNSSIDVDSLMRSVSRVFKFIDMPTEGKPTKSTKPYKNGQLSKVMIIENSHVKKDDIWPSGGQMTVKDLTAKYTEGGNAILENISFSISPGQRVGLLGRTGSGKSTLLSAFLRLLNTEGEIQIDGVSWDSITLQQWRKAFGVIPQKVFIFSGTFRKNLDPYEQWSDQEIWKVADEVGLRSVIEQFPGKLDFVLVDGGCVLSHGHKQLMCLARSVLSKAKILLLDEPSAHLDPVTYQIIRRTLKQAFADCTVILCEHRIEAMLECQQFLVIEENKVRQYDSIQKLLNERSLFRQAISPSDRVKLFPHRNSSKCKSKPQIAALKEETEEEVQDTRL

For `Cc1nn(-c2ccccc2)c2nc(C(=O)NS(C)(=O)=O)cc(-c3ccc(N4CCOCC4)cc3)c12` [Compound 1, N-(methanesulfonyl)-3-methyl-4-[4-(morpholin-4-yl)phenyl]-1-phenyl-1H-pyrazolo[3,4-b]pyridine-6-carboxamide], the “% Activation” value under setting [1] was 297.2%. In addition, the EC50 under setting [2] was determined as 1190 nM.
On to `CCS(=O)(=O)NC(=O)c1cc(-c2ccc(N3CCOCC3)cc2)c2c(C)nn(-c3ccccc3)c2n1` [Compound 5, N-(ethanesulfonyl)-3-methyl-4-[4-(morpholin-4-yl)phenyl]-1-phenyl-1H-pyrazolo[3,4-b]pyridine-6-carboxamide], for which the “% Activation” value under setting [1] is listed as 362.75%. Under setting [2], the EC50 is 372 nM.
In the case of `COCC1CCN(c2cc(C(=O)NS(=O)(=O)CCC(=O)OC)nc3c2c(C2CCC2)nn3-c2ccccc2)CC1` [Compound 288, methyl 3-({3-cyclobutyl-4-[4-(methoxymethyl)piperidin-1-yl]-1-phenyl-1H-pyrazolo[3,4-b]pyridine-6-carbonyl}sulfamoyl)propanoate], the “% Activation” value under setting [1] was determined as 566.4%. The EC50 under setting [2] stood at 74.3 nM.
With `COCC1CCN(c2cc(C(=O)NS(=O)(=O)CCC(=O)O)nc3c2c(C2CCC2)nn3-c2ccccc2)CC1` [Compound 289, 3-({3-cyclobutyl-4-[4-(methoxymethyl)piperidin-1-yl]-1-phenyl-1H-pyrazolo[3,4-b]pyridine-6-carbonyl}sulfamoyl)propanoic Acid], the “% Activation” value under setting [1] was found to be 366.4%. Further, under setting [2], the EC50 was found to be 3330 nM.
With `COCCN(C)c1cc(C(=O)NS(C)(=O)=O)nc2c1c(C(C)C)nn2-c1ccc(F)cc1` [Compound 301, 1-(4-fluorophenyl)-N-(methanesulfonyl)-4-[(2-methoxyethyl)(methyl)amino]-3-(propan-2-yl)-1H-pyrazolo[3,4-b]pyridine-6-carboxamide], under setting [1], the “% Activation” value was 376.6%. The EC50 under setting [2] came to 1140 nM.
Regarding `COCC1CCN(c2cc(C(=O)NS(=O)(=O)CCCN3CCC3)nc3c2c(C(C)C)nn3-c2ccc(F)cc2)CC1` [Compound 302, N-[3-(azetidin-1-yl)propane-1-sulfonyl]-1-(4-fluorophenyl)-4-[4-(methoxymethyl)piperidin-1-yl]-3-(propan-2-yl)-1H-pyrazolo[3,4-b]pyridine-6-carboxamide], the “% Activation” value under setting [1] is on record as 401.45%. Under setting [2], the EC50 is 1800 nM.
The corresponding values for `CC(C)c1nn(-c2ccc(F)cc2)c2nc(C(=O)NS(C)(=O)=O)cc(OCCC3CCCCN3C)c12` (centres unmarked) [Compound 305, 1-(4-fluorophenyl)-N-(methanesulfonyl)-4-[2-(1-methylpiperidin-2-yl)ethoxy]-3-(propan-2-yl)-1H-pyrazolo[3,4-b]pyridine-6-carboxamide] are 267% and 2440 nM.
For `CC(=O)N1CCC(F)(COc2cc(C(=O)NS(C)(=O)=O)nc3c2c(C(C)C)nn3-c2ccc(F)cc2)CC1` [Compound 308, 4-[(1-acetyl-4-fluoropiperidin-4-yl)methoxy]-1-(4-fluorophenyl)-N-(methanesulfonyl)-3-(propan-2-yl)-1H-pyrazolo[3,4-b]pyridine-6-carboxamide], the “% Activation” value under setting [1] amounted to 328.85%. Further, the EC50 under setting [2] amounted to 2490 nM.
`COCC(COC)Oc1cc(C(=O)NS(C)(=O)=O)nc2c1c(C(C)C)nn2-c1ccc(F)cc1` [Compound 311, 4-[(1,3-dimethoxypropan-2-yl)oxy]-1-(4-fluorophenyl)-N-(methanesulfonyl)-3-(propan-2-yl)-1H-pyrazolo[3,4-b]pyridine-6-carboxamide]: under setting [1], the “% Activation” value was 241.35%. Also, the EC50 under setting [2] is 1060 nM.
As to `CC(C)c1nn(-c2ccc(F)cc2)c2nc(C(=O)NS(C)(=O)=O)cc(OCC3COCCO3)c12` (centres unmarked) [Compound 312, 4-[(1,4-dioxan-2-yl)methoxy]-1-(4-fluorophenyl)-N-(methanesulfonyl)-3-(propan-2-yl)-1H-pyrazolo[3,4-b]pyridine-6-carboxamide], under setting [1], the “% Activation” value is 291.5%. Also, under setting [2], the EC50 is 1880 nM.
As for `CC(C)c1nn(-c2ccc(F)cc2)c2nc(C(=O)NS(C)(=O)=O)cc(OCCOC3COC3)c12` [Compound 313, 1-(4-fluorophenyl)-N-(methanesulfonyl)-4-{2-[(oxetan-3-yl)oxy]ethoxy}-3-(propan-2-yl)-1H-pyrazolo[3,4-b]pyridine-6-carboxamide], the “% Activation” value under setting [1] was 319.75%. Under setting [2], the EC50 amounted to 1750 nM.
On to `CS(=O)(=O)NC(=O)c1cc(OCCCN2CCCCC2)c2c(C3CCC3)nn(-c3ccccc3)c2n1` [Compound 314, 3-cyclobutyl-N-(methanesulfonyl)-1-phenyl-4-[3-(piperidin-1-yl)propoxy]-1H-pyrazolo[3,4-b]pyridine-6-carboxamide], for which the “% Activation” value under setting [1] turned out to be 375.8%. In addition, under setting [2], the concentration for a half-maximal effect (EC50) came out at 693 nM.
Turning to `CC(=O)N1CCC(COc2cc(C(=O)NS(C)(=O)=O)nc3c2c(C(C)C)nn3-c2ccc(F)cc2)CC1` [Compound 321, 4-[(1-acetylpiperidin-4-yl)methoxy]-1-(4-fluorophenyl)-N-(methanesulfonyl)-3-(propan-2-yl)-1H-pyrazolo[3,4-b]pyridine-6-carboxamide], the “% Activation” value under setting [1] is 314.37%. The EC50 under setting [2] turned out to be 497 nM.
Turning to `COCC(COC)Oc1cc(C(=O)NS(C)(=O)=O)nc2c1c(C1CCC1)nn2-c1ccccc1` [Compound 324, 3-cyclobutyl-4-[(1,3-dimethoxypropan-2-yl)oxy]-N-(methanesulfonyl)-1-phenyl-1H-pyrazolo[3,4-b]pyridine-6-carboxamide], under setting [1], the “% Activation” value came to 259.7%. For the same compound, the EC50 under setting [2] is 1640 nM.
`CC(=O)N1CC[C@@H]2CN(c3cc(C(=O)NS(=O)(=O)CCCN4CCOCC4)nc4c3c(C3CCC3)nn4-c3ccccc3)CC[C@@H]21` [Compound 332, 4-[(3aR,7aS)-1-acetyloctahydro-5H-pyrrolo[3,2-c]pyridin-5-yl]-3-cyclobutyl-N-[3-(morpholin-4-yl)propane-1-sulfonyl]-1-phenyl-1H-pyrazolo[3,4-b]pyridine-6-carboxamide]: the EC50 worked out at 624 nM. In addition, the “% Activation” value under setting [1] came out at 448.25%.
Regarding `CC(C)c1nn(-c2ccc(F)cc2)c2nc(C(=O)NS(C)(=O)=O)cc(N3CCC4(CC3)CN(C)C(=O)O4)c12` [Compound 338, 1-(4-fluorophenyl)-N-(methanesulfonyl)-4-(3-methyl-2-oxo-1-oxa-3,8-diazaspiro[4.5]decan-8-yl)-3-(propan-2-yl)-1H-pyrazolo[3,4-b]pyridine-6-carboxamide], under setting [1], the “% Activation” value is recorded as 344.25%. Under setting [2], the 50% effective concentration (EC50) was determined as 946 nM.
For the compound `CC(C)c1nn(-c2ccc(F)cc2)c2nc(C(=O)NS(C)(=O)=O)cc(N3CCC4(CC3)NC(=O)NC4=O)c12` [Compound 341, 4-(2,4-dioxo-1,3,8-triazaspiro[4.5]decan-8-yl)-1-(4-fluorophenyl)-N-(methanesulfonyl)-3-(propan-2-yl)-1H-pyrazolo[3,4-b]pyridine-6-carboxamide], the “% Activation” value under setting [1] is 165.4%. The half-maximal effective concentration (EC50) under setting [2] turned out to be 3330 nM.
As for `CCOCC1(F)CCN(c2cc(C(=O)NS(C)(=O)=O)nc3c2c(C(C)C)nn3-c2ccc(F)cc2)CC1` [Compound 342, 4-[4-(ethoxymethyl)-4-fluoropiperidin-1-yl]-1-(4-fluorophenyl)-N-(methanesulfonyl)-3-(propan-2-yl)-1H-pyrazolo[3,4-b]pyridine-6-carboxamide], the “% Activation” value under setting [1] is on record as 336.5%. Further, the EC50 under setting [2] was determined as 207 nM.
`COCCOCC1(F)CCN(c2cc(C(=O)NS(C)(=O)=O)nc3c2c(C(C)C)nn3-c2ccc(F)cc2)CC1` [Compound 343, 4-{4-fluoro-4-[(2-methoxyethoxy)methyl]piperidin-1-yl}-1-(4-fluorophenyl)-N-(methanesulfonyl)-3-(propan-2-yl)-1H-pyrazolo[3,4-b]pyridine-6-carboxamide]: the “% Activation” value under setting [1] was 356.9%. For the same compound, the EC50 under setting [2] worked out at 566 nM.
